Results: patent US20100105637A1, “Drug-surfactant complexes for sustained release” (priority 2005, published 2010)
Where a name gives a salt, the structure may show the parent alone.

Experiment: Fractional release of drug from tablets into stirred aqueous solution, measured by uv/vis spectroscopy
Type: physicochemical
Settings: 150 mg tablets without binders or excipients, pH 7.0 water, stirred at 100 rpm (FIG. 1)
Method: The tablets were placed into pH 7.0 water and stirred with a stirrer at 100 rpm. Fractional release was determined by uv/vis spectroscopy of the aqueous solution at 278 nm to measure the concentration of diltiazem in solution.
The tablets were placed in pH 7.0 water and stirred at 100 rpm, and fractional release was measured as above.
The drug-bile complex was pressed into tablets without any binders or excipients as in Example 1.

- amount of diltiazem released at the first time point: all
Structure (SMILES): COc1ccc([C@@H]2Sc3ccccc3N(CCN(C)C)C(=O)[C@@H]2OC(C)=O)cc1 [diltiazem-HCl, Diltiazem-HCl]
